Assay results taken from patent US20240366616A1, “SOLUBLE PHARMACEUTICAL COMPOSITIONS COMPRISING SALTS OF DISUBSTITUTED 1, 2, 4-TRIAZINE COMPOUND” (Mineralys Therapeutics, Inc., priority 2021, published 2024).

What was measured:
Format in all cases: physicochemical
[1] = Stability test of 10% API capsules: purity test (related substances); conditions: Initial
Experimental: Metal salt-free excipients were selected.
D-Mannitol and talc were mixed and sieved. The API was added to the sieved mixture, blended, sieved, and filled in HPMC capsules.

[2] = Study II of tablets: purity test (related substances) after storage; conditions: Initial
Excerpt: API granules, a disintegrant, and lubricants were mixed in a polyethylene bag. After confirming pressure dependency, the mixture was subjected to sequential tableting (900 kilogram of force, i.e. about 8826 Newtons).

[3] = Dissolution test of ALDSI (JP Paddle Method, JP Second Fluid) and XRPD after storage or processing of API alone
Experimental: Storage conditions: 25° C./60% RH, 40° C./75% RH, and 60° C./75% RH (relative humidity) in an open container
Sampling time points: 3 days and 1 week
Test method: JP Apparatus for Paddle Method (Apparatus 2)
Revolutions: 50 rpm for 0-30 min, and 250 rpm for 30 min.
Dissolution medium: JP Second Fluid for dissolution test (A mixture of phosphate buffer solution (pH 6.8) and water (1:1), as described in the Japanese Pharmacopoeia.)

[4] = Powder x-ray diffraction of ALDSI stored with a metal salt (croscarmellose Na); conditions: 3 days storage with croscarmellose Na, 60° C./75% RH
Experimental: FIG. 1: Powder x-ray diffraction peaks detected from MLS-101 after 3 days of storage with a metal salt (croscarmellose Na) (storage conditions: 60° C./75% RH).
ALDSI-derived peaks were detected after 3 days of storage of ALDSI with a metal salt (croscarmellose Na). (storage conditions: 60° C./75% RH)

[5] = Water solubility of API free base

For `CC(=O)N[C@H]1CC[C@H](NC(=O)CN2CCN(c3nncc(-c4ccc(C)cc4)n3)CC2)CC1` [ALDSI], which “Individual related substances RRT 0.95” value [1] is on record?
Its value is 0.10%.

What about the “Individual related substances RRT 0.96” value [1] of the same molecule?
Its value is 0.04%.

What about the “Individual related substances RRT 0.98” value [1] of the same molecule?
Its value is 0.11%.

And the “Individual related substances RRT 1.18” value [1]?
The value was 0.47%.

And the “Individual related substances RRT 1.19” value [1]?
Its value is 0.03%.

And the Total related substances [1]?
The Total related substances was 0.75%.

What about the “Individual related substances RRT 0.81” value [2] of the same molecule?
Its value is 0.11%.

What about the “Individual related substances RRT 0.85” value [2] of the same molecule?
The value was 0.02%.

And the “Individual related substances RRT 1.09” value [2]?
The value was 0.02%.

What about the “Individual related substances RRT 1.13” value [2] of the same molecule?
Its value is 0.02%.

And the “Individual related substances RRT 1.35” value [2]?
The value was 0.02%.

And the “Individual related substances RRT 1.43” value [2]?
Its value is 0.02%.

And the “Individual related substances RRT 1.69” value [2]?
The value was 0.02%.

And the Total related substances [2]?
Its Total related substances is 0.23%.

What about the “Dissolution differences among samples” value ([3]; API alone compressed at 300, 600, and 900 kilograms of force) of the same molecule?
Its value is “no differences in dissolution among samples”.

What about the “Dissolution differences among samples” value ([3]; API alone ground for 1, 3, 20, and 30 min) of the same molecule?
Its value is “no differences in dissolution among samples”.

What about the “Dissolution differences among samples” value ([3]; API alone kneaded with large, middle, and small amounts of water) of the same molecule?
The value was “no differences in dissolution among samples”.

What about the “Dissolution delay / new XRPD peaks after storage” value ([3]; API alone, 25° C./60% RH, 40° C./75% RH, 60° C./75% RH open container, 3 days and 1 week) of the same molecule?
Its value is “no delay of dissolution or appearance of new peaks on XRPD”.

And the “Dissolution changes over time” value ([3]; compressed API alone stored at 60° C./75% RH for 3 days or 1 week)?
Its value is “no changes in dissolution over time”.

And the “Dissolution changes over time” value ([3]; ground API alone stored at 60° C./75% RH for 3 days or 1 week)?
The value was “no changes in dissolution over time”.

And the “Propensity toward disproportionation in the presence of a metal salt” value [4]?
Its value is “high propensity toward disproportionation”.

Which Solubility in water [5] does the source give for `CC(=O)N[C@H]1CC[C@H](NC(=O)CN2CCN(c3nncc(-c4ccc(C)cc4)n3)CC2)CC1` [API free base] here?
Its Solubility in water is “poorly soluble in water”.
